Source: ChEMBL document CHEMBL6103569, “Discovery of novel fluorine-containing parthenolide analogues as potential antitumor agents” (Eur J Med Chem, 2025)

Tests used:
Format in all cases: functional, cell-based
[1] = Antiproliferative activity against human NCI-H820 cells assessed as inhibition of cell growth incubated for 72 hrs by MTT assay
Huh-7 = experiment: Antiproliferative activity against human Huh-7 cells assessed as inhibition of cell growth incubated for 72 hrs by MTT assay
PANC-1 = experiment: Antiproliferative activity against human PANC-1 cells assessed as inhibition of cell growth incubated for 72 hrs by MTT assay

| SMILES | IC50 (Huh-7; Homo sapiens, Huh-7, 72 h) | IC50 (PANC-1; Homo sapiens, PANC-1, 72 h) | IC50 (Huh-7; huh-7) | IC50 (PANC-1; panc-1) | IC50 ([1]; Homo sapiens, NCI-H820, 72 h) | IC50 ([1]; nci-h820) |
| --- | --- | --- | --- | --- | --- | --- |
| C[C@@]12CC/C=C(/CC(F)(F)F)CC[C@H]3C(CN4CCC[C@H]4CO)C(=O)O[C@@H]3[C@@H]1O2 (stereo partly drawn) | 3.67 µM | 4.57 µM |  |  | 4.53 µM |  |
| CN1CCN(CC2C(=O)O[C@H]3[C@H]2CC/C(CC(F)(F)F)=C\CC[C@@]2(C)O[C@@H]32)CC1 (stereo partly drawn) [listing 1 of 2 here] |  |  | 14.2 µM | 12.7 µM |  | 22.5 µM |
| C[C@@]12CC/C=C(/CC(F)(F)F)CC[C@H]3C(CN4CC[C@@H](O)C4)C(=O)O[C@@H]3[C@@H]1O2 (stereo partly drawn) |  |  | 3.1 µM | 3.23 µM |  | 3.95 µM |
| CN(C)CC1C(=O)O[C@H]2[C@H]1CC/C(CC(F)(F)F)=C\CC[C@@]1(C)O[C@@H]21 (stereo partly drawn) |  |  | 3.08 µM | 4.38 µM |  | 4.38 µM |
| CN1CCN(CC2C(=O)O[C@H]3[C@H]2CC/C(CC(F)(F)F)=C\CC[C@@]2(C)O[C@@H]32)CC1 (stereo partly drawn) [listing 2 of 2 here] | 14.9 µM | 15.8 µM |  |  | 30.7 µM |  |

Further lines, with some results ahead:

| IC50 (Huh-7; Homo sapiens, Huh-7, 72 h) | IC50 (PANC-1; Homo sapiens, PANC-1, 72 h) | IC50 (Huh-7; huh-7) | IC50 (PANC-1; panc-1) | SMILES | IC50 ([1]; Homo sapiens, NCI-H820, 72 h) | IC50 ([1]; nci-h820) |
| --- | --- | --- | --- | --- | --- | --- |
| 1.5 µM | 1.35 µM |  |  | C=C1C(=O)O[C@H]2[C@H]1CC/C(CSC#N)=C\CC[C@@]1(C)O[C@@H]21 | 2.04 µM |  |
| 10.1 µM | 15.6 µM |  |  | C=C1C(=O)O[C@H]2[C@H]1CC/C(CO)=C\CC[C@@]1(C)O[C@@H]21 | 13.3 µM |  |
| 3.6 µM | 5.13 µM |  |  | C=C1C(=O)O[C@H]2[C@H]1CC/C(C)=C/CC[C@@]1(C)O[C@@H]21 [PARTHENOLIDE] | 6.35 µM |  |
| 7.52 µM | 14.2 µM |  |  | C=C1C(=O)O[C@H]2[C@H]1CC/C(C=C(F)F)=C\CC[C@@]1(C)O[C@@H]21 | 9.9 µM |  |
| 4.38 µM | 5.79 µM |  |  | C[C@@]12CC/C=C(/CC(F)(F)F)CC[C@H]3C(CN4CCC(O)CC4)C(=O)O[C@@H]3[C@@H]1O2 (stereo partly drawn) | 6.32 µM |  |
|  |  | 4.1 µM | 5.19 µM | C[C@@]12CC/C=C(/CC(F)(F)F)CC[C@H]3C(CN4CCCC4)C(=O)O[C@@H]3[C@@H]1O2 (stereo partly drawn) |  | 6.44 µM |
